Values after ≈ are worked out from the molar mass of the structure shown. Like-named read-outs stand apart in the source and are kept apart here.
What was measured:
Assay type in all cases: cell-based
Aspergillus fumigatus = assay: In vitro antimicrobial activity against Aspergillus fumigatus; conditions: for IC50: Aspergillus fumigatus, read-out: A. fumigatus IC50
Experimental: (§1) Fifty organic extracts were prepared from 25 whole broth of four microbial strains (MS1479, MS2379, MS2820, and MS2414), which were fermented in different media for the antimicrobial testing. Note each whole broth culture generated one n-butanol extract from cultural supernatant and one methanol extract from cell pellets.
(§2) The antimicrobial activities of the 50 organic extracts were studied against three fungal pathogens—Candida albicans, Aspergillus fumigatus, and Cryptococcus neoformans—and five bacterial strains-Methicillin-resistant Staphylococcus aureus (MIRSA), Escherichia coli, Pseudomonas aeruginosa, Klebsiella pneumoniae, and Vancomycin-resistant Enterococcus faecium (VRE) (FIG. 2). The test concentrations for all extracts were in the range of 8-200 μg/mL (Table 3).
(§3) The antimicrobial activities of identified fusaricidins were in an in vitro study against several clinically relevant microbes. […] For the in-vitro assays against bacteria, fusaricidins were tested against methicillin-resistant Staphylococcus aureus, vancomycin-resistant Enterococcus faecium, Escherichia coli, and Pseudomonas aeruginosa using four antibacterial drugs methicillin, vancomycin, cefotaxime, and meropenem as controls. […] Fusaricidins were also tested against fungal pathogens Cryptococcus neoformans, Candida albicans, and Aspergillus fumigatus and compared with two antifungal drugs, fluconazole and amphotericin B (Table 13). Moreover, the anti-parasitic activity was also tested against L. donovani and T. brucei (Table 14).

[1] = system: Vancomycin-resistant Enterococcus faecium (VRE); assay: In vitro antimicrobial activity against VRE
Experimental: as §1, §2, §3

Candida albicans = assay: In vitro antimicrobial activity against Candida albicans; conditions: for IC50: Candida albicans, read-out: C. albicans IC50
Experimental: as §1, §2, §3

Escherichia coli = assay: In vitro antimicrobial activity against Escherichia coli
Experimental: as §1, §2, §3

Pseudomonas aeruginosa = assay: In vitro antimicrobial activity against Pseudomonas aeruginosa
Experimental: as §1, §2, §3

THP-1 = assay: Cytotoxicity against THP-1 cells (counter-screen of the antiparasitic assays)
Experimental: as §3

Cryptococcus neoformans = assay: In vitro antimicrobial activity against Cryptococcus neoformans; conditions: for IC50: Cryptococcus neoformans, read-out: C. neoformans IC50
Experimental: as §1, §2
The potent activities against the fungal pathogen C. neoformans and the gram-positive bacteria S. aureus, MRSA, and M. intracellulare were also shown in the crude extracts (FIG. 7).
as §3

[2] = system: Methicillin-resistant Staphylococcus aureus (MRSA); assay: In vitro antimicrobial activity against MRSA
Experimental: as §1, §2, §3

Klebsiella pneumoniae = assay: In vitro antimicrobial activity against Klebsiella pneumoniae; conditions: test conc. 200-8 μg/mL (extracts), 100-4 or 10-0.4 μg/mL (drugs); for IC50: Klebsiella pneumoniae, read-out: K pneumoniae IC50
Experimental: as §1, §2

L. donovani = assay: In-vitro antiparasitic activity against L. donovani
Experimental: as §3

[3] = Table 5, extracts tested at 8-200 μg/mL
[4] = Table 12, highest test conc. fusaricidins 20, controls 100 μg/mL
[5] = Table 12, lowest concentration that allows no detectable growth
[6] = test conc. 200-8 μg/mL (extracts), 100-4 or 10-0.4 μg/mL (drugs)
[7] = test conc. 200-8 μg/mL (extracts), 100-4 or 10-0.4 μg/mL (drugs), read-out: VRE IC50
[8] = Escherichia coli, test conc. 200-8 μg/mL (extracts), 100-4 or 10-0.4 μg/mL (drugs), read-out: E. coli IC50
[9] = Pseudomonas aeruginosa, test conc. 200-8 μg/mL (extracts), 100-4 or 10-0.4 μg/mL (drugs), read-out: P. aeruginosa IC50
[10] = Staphylococcus aureus, MRSA, test conc. 200-8 μg/mL (extracts), 100-4 or 10-0.4 μg/mL (drugs), read-out: MRS IC50

C[C@@H]1[C@H](O)[C@@H](C)/C=C/C=C/C=C/C=C/C=C/C=C/C=C/[C@H](O[C@@H]2O[C@H](C)[C@@H](O)[C@H](N)[C@@H]2O)C[C@@H]2O[C@](O)(C[C@@H](O)C[C@@H](O)[C@H](O)CC[C@@H](O)C[C@@H](O)CC(=O)O[C@H]1C)C[C@H](O)[C@H]2C(=O)O [Amphotericin B]
A. fumigatus IC50 (Aspergillus fumigatus; [3]): 1.407 µg/mL
A. fumigatus IC50 (50% growth inhibitory concentration) (Aspergillus fumigatus; [4]): 2.4 µg/mL
A. fumigatus MIC (minimum inhibitory concentration) (Aspergillus fumigatus; [5]): 3.1 µg/mL
A. fumigatus IC50 (Aspergillus fumigatus; [6]): 1.407 µg/mL
VRE IC50 [1, 3]: >100 µg/mL
VRE IC50 [1, 6]: >100 µg/mL
C. albicans IC50 (Candida albicans; [3]): <0.1 µg/mL
C. albicans IC50 (50% growth inhibitory concentration) (Candida albicans; [4]): 0.4 µg/mL
C. albicans MIC (minimum inhibitory concentration) (Candida albicans; [5]): 0.8 µg/mL
C. albicans IC50 (Candida albicans; [6]): <0.1 µg/mL
E. coli IC50 (Escherichia coli; [6]): >100 µg/mL
P. aeruginosa IC50 (Pseudomonas aeruginosa; [6]): >100 µg/mL
THP-1 IC50 (THP-1): >2/>2 μg/mL
THP-1 IC90 (THP-1; 90% inhibitory concentration): >2/>2 μg/mL
IC50 against C. neoformans (Cryptococcus neoformans; Example 4, column fractions of MS2414 extract (FIG. 7)): 0.15 µg/mL (≈ 0.162 µM)
C. neoformans IC50 (Cryptococcus neoformans; [3]): 0.24 µg/mL
C. neoformans IC50 (50% growth inhibitory concentration) (Cryptococcus neoformans; [4]): 0.3 µg/mL
C. neoformans MIC (minimum inhibitory concentration) (Cryptococcus neoformans; [5]): 0.4 µg/mL
C. neoformans IC50 (Cryptococcus neoformans; [6]): 0.24 µg/mL
MRS IC50 [2, 3]: >100 µg/mL
MRS IC50 [2, 6]: >100 µg/mL
K pneumoniae IC50 (Klebsiella pneumoniae): >100 µg/mL
L. donovani Amastigote IC50 (L. donovani; amastigote): 0.9 µg/mL
L. donovani Amastigote/THP IC50 (L. donovani; amastigote/THP): 0.2/0.2 μg/mL
L. donovani Amastigote/THP IC90 (L. donovani; amastigote/THP, 90% inhibitory concentration): 0.2/0.2 μg/mL
L. donovani Amastigote IC90 (L. donovani; amastigote, 90% inhibitory concentration): 1.1 µg/mL
L. donovani Promastigote IC50 (L. donovani; promastigote): 0.3 µg/mL
L. donovani Promastigote IC90 (L. donovani; promastigote, 90% inhibitory concentration): 0.4 µg/mL

CO/N=C(\C(=O)N[C@@H]1C(=O)N2C(C(=O)O)=C(COC(C)=O)CS[C@H]12)c1csc(N)n1 [Cefotaxime]
IC50 (Aspergillus fumigatus; [6]): > 100 µg/mL
A. fumigatus IC50 (Aspergillus fumigatus; [3]): >100 µg/mL
IC50 ([1]; ATCC 700221 / VRE, Table 13, Vancomycin-resistant Enterococcus faecium ATCC 700221, read-out: VRE IC50 (50% growth inhibitory concentration)): > 100 µg/mL
MIC ([1]; ATCC 700221 / VRE, Table 13, Vancomycin-resistant Enterococcus faecium ATCC 700221, read-out: VRE MIC (minimum inhibitory concentration)): > 100 µg/mL
VRE IC50 [1, 3]: >100 µg/mL
IC50 [1, 7]: > 100 µg/mL
IC50 (Candida albicans; [6]): > 100 µg/mL
C. albicans IC50 (Candida albicans; [3]): >100 µg/mL
IC50 (Escherichia coli; ATCC2452, Table 13, Escherichia coli ATCC 2452, read-out: E. coli IC50 (50% growth inhibitory concentration)): > 100 µg/mL
MIC (Escherichia coli; ATCC2452, Table 13, Escherichia coli ATCC 2452, read-out: E. coli MIC (minimum inhibitory concentration)): > 100 µg/mL
IC50 (Escherichia coli; [8]): 80.2 µg/mL (≈ 176 µM)
IC50 (Pseudomonas aeruginosa; ATCC2108, Table 13, Pseudomonas aeruginosa ATCC 2108, read-out: P. aeruginosa IC50 (50% growth inhibitory concentration)): 5.3 µg/mL (≈ 11.6 µM)
MIC (Pseudomonas aeruginosa; ATCC2108, Table 13, Pseudomonas aeruginosa ATCC 2108, read-out: P. aeruginosa MIC (minimum inhibitory concentration)): 25 µg/mL (≈ 54.9 µM)
IC50 (Pseudomonas aeruginosa; [9]): 11.8 µg/mL (≈ 26 µM)
IC50 (Cryptococcus neoformans; [6]): > 100 µg/mL
C. neoformans IC50 (Cryptococcus neoformans; [3]): >100 µg/mL
IC50 ([2]; ATCC 1708 / MRSA, Table 13, Methicillin-resistant Staphylococcus aureus ATCC 1708, read-out: MRSA IC50 (50% growth inhibitory concentration)): 15.6 µg/mL (≈ 34.3 µM)
MIC ([2]; ATCC 1708 / MRSA, Table 13, Methicillin-resistant Staphylococcus aureus ATCC 1708, read-out: MRSA MIC (minimum inhibitory concentration)): 25 µg/mL (≈ 54.9 µM)
IC50 [2, 10]: 14.8 µg/mL (≈ 32.5 µM)
IC50 (Klebsiella pneumoniae): > 100 µg/mL

O=C(O)c1cn(C2CC2)c2cc(N3CCNCC3)c(F)cc2c1=O [Ciprofloxacin]
VRE IC50 [1, 3]: >10 µg/mL
IC50 [1, 7]: > 10 µg/mL
IC50 (Escherichia coli; [8]): < 0.01 µg/mL
IC50 (Pseudomonas aeruginosa; [9]): 0.81 µg/mL (≈ 2.44 µM)
IC50 (Cryptococcus neoformans; [6]): > 10 µg/mL
C. neoformans IC50 (Cryptococcus neoformans; [3]): >10 µg/mL
IC50 [2, 10]: > 10 µg/mL
MRS IC50 [2, 3]: >10 µg/mL
IC50 (Klebsiella pneumoniae): > 10 µg/mL

OC(Cn1cncn1)(Cn1cncn1)c1ccc(F)cc1F [Fluconazole]
IC50 (Aspergillus fumigatus; [6]): > 100 µg/mL
A. fumigatus IC50 (Aspergillus fumigatus; [3]): >100 µg/mL
VRE IC50 [1, 3]: >100 µg/mL
IC50 [1, 7]: > 100 µg/mL
IC50 (Candida albicans; [6]): < 0.1 µg/mL
C. albicans IC50 (Candida albicans; [3]): <0.1 µg/mL
IC50 (Escherichia coli; [8]): > 100 µg/mL
IC50 (Pseudomonas aeruginosa; [9]): > 100 µg/mL
IC50 (Cryptococcus neoformans; [6]): 2.2 µg/mL (≈ 7.18 µM)
IC50 [2, 10]: > 100 µg/mL
MRS IC50 [2, 3]: >100 µg/mL
IC50 (Klebsiella pneumoniae): > 100 µg/mL
